# Data: ChEMBL document CHEMBL1128782, “Nucleosides and nucleotides. 142. an alternative synthesis of and its antiviral activity” (Bioorg Med Chem Lett, 1995)
# What was measured:
# [1] = test system: Human betaherpesvirus 5; test: Effective dose required for plaque reduction in human cytomegalovirus (HCMV) was determined; format: functional, organism-based
# [2] = test system: Influenza B virus; test: Effective dose required to reduce virus induced cytopathogenicity by Influenza B(Fu 207) was determined; format: functional, organism-based
# [3] = test system: Vesicular stomatitis virus; test: Effective dose required for plaque reduction in vesicular stomatitis virus (VSV) was determined; format: functional, organism-based
# [4] = test system: Influenza B virus; test: Effective dose required to reduce virus induced cytopathogenicity by Influenza B(singapore) was determined; format: functional, organism-based
# [5] = Evaluated for time-dependent and irreversible inhibitor of bovine S-adenosyl-L-homocysteine; parameters: species or system Bos taurus
# [6] = test system: Influenza A virus; test: Effective dose required to reduce virus induced cytopathogenicity by Influenza A(H1N1,Fu 88) was determined; format: functional, organism-based
# [7] = test system: Influenza B virus; test: Effective dose required to reduce virus induced cytopathogenicity by Influenza B (Fu 207) was determined; format: functional, organism-based
SMILES,EC50 [1] [µg/mL],EC50 [2] [µg/mL],EC50 [3] [µg/mL],EC50 [4] [µg/mL],Ki [5] [nM],EC50 [6] [µg/mL],EC50 [7] [µg/mL]
N#C[C@H]1OC(n2cnc3c(N)ncnc32)[C@H](O)[C@@H]1O (some centres not stated),1.4,10,1.2,,,,
C#C[C@H]1OC(n2cnc3c(N)ncnc32)[C@H](O)[C@@H]1O (some centres not stated),8.2,1.8,0.14,0.9,173,0.38,
Nc1ncnc2c1ncn2C1O[C@H](C=C(Br)Br)[C@@H](O)[C@H]1O (some centres not stated),> 10,,> 10,,,,32
Nc1ncnc2c1ncn2[C@@H]1C=C(CO)[C@@H](O)[C@H]1O [NEOPLANOCIN A],0.2,> 20,0.38,> 20,,> 20,
NC(=O)c1ncn([C@@H]2O[C@H](CO)[C@@H](O)[C@H]2O)n1 [RIBAVIRIN],> 10,36.9,> 10,6.7,,19.6,
